According to US10947188B2, “Small molecule ferroptosis inducers” (THE TRUSTEES OF COLUMBIA UNIVERSITY IN THE CITY OF NEW YORK, priority 2016, dated 2021):
Converted amounts (≈) assume the structure as drawn.

Key:
HT-1080 cells [1] = test: Cell viability assay (Alamar Blue), lethal compounds with or without modulators; format: cell-based; details: for ferroptosis-inducing activity of FIN56 analogs: HT-1080, 48 hrs; for effect of ferroptosis inhibitors (α-tocopherol, deferoxamine) on lethality / effect on FIN56 lethality: HT-1080 cells; for effect of ferroptosis inhibitors (α-tocopherol, deferoxamine) on lethality: cotreatment; for effect on FIN56 lethality: modulator cotreatment or pretreatment
Description: 1,000 cells per 36 μl were seeded in each well in 384-well plates. Lethal compounds were dissolved, and a twofold, 12-point dilution series was prepared in DMSO. Compound solutions were further diluted with media at 1:25, and 4 μl per well of the diluted solutions was added to cell cultures immediately after cells were seeded. […] When other cell-death-modulating compounds (100 nM sodium selenite, 1 μM cerivastatin, 100 μg/mL mevalonic acid) were used in cotreatments, they were supplemented to cell culture for 24 h before lethal compounds were added to cell culture, after which cells were further incubated for 24 h at 37° C. under 5% CO2. On the day of the viability measurement, we added 10 μl per well of 50% Alamar Blue diluted in media (Life Technologies) and further incubated the cells at 37° C. for 6 h. Fluorescence intensity (excitation/emission: 530/590) was measured with a Victor 3 plate reader (PerkinElmer), and the normalized viability was calculated as VL=(IL−I0)/(IV−I0), where VL, I0, IV, and IL are the normalized viability and the raw fluorescence intensities from the wells containing media, cells treated with a vehicle (negative control), and cells with the lethal compound (L), respectively. When the effect of a chemical modulator (M) on L was calculated, we instead used the equation VL|M=(IM,L−I0)/(IM,V−I0), where VL|M, IM,L and IM,V are the normalized viability, and fluorescence intensity from cells treated with […], respectively. The viability was typically measured in biological triplicate unless otherwise specified. A representative dose-response curve, the mean and standard error of normalized viability from one replicate were plotted. […]

HT-1080 cells [2] = test: Lethality of commercially available CIL41/70 structural analogs; format: cell-based; details: tested once in technical triplicates; for EC50: Homo sapiens
Description: 1,000 cells per 36 μl were seeded in each well in 384-well plates. Lethal compounds were dissolved, and a twofold, 12-point dilution series was prepared in DMSO. Compound solutions were further diluted with media at 1:25, and 4 μl per well of the diluted solutions was added to cell cultures immediately after cells were seeded. […] When other cell-death-modulating compounds (100 nM sodium selenite, 1 μM cerivastatin, 100 μg/mL mevalonic acid) were used in cotreatments, they were supplemented to cell culture for 24 h before lethal compounds were added to cell culture, after which cells were further incubated for 24 h at 37° C. under 5% CO2. On the day of the viability measurement, we added 10 μl per well of 50% Alamar Blue diluted in media (Life Technologies) and further incubated the cells at 37° C. for 6 h. Fluorescence intensity (excitation/emission: 530/590) was measured with a Victor 3 plate reader (PerkinElmer), and the normalized viability was calculated as VL=(IL−I0)/(IV−I0), where VL, I0, IV, and IL are the normalized viability and the raw fluorescence intensities from the wells containing media, cells treated with a vehicle (negative control), and cells with the lethal compound (L), respectively. When the effect of a chemical modulator (M) on L was calculated, we instead used the equation VL|M=(IM,L−I0)/(IM,V−I0), where VL|M, IM,L and IM,V are the normalized viability, and fluorescence intensity from cells treated with […], respectively. The viability was typically measured in biological triplicate unless otherwise specified. A representative dose-response curve, the mean and standard error of normalized viability from one replicate were plotted. HT-1080 viability after modulator treatments corresponding to FIG. 3C and FIGS. 5E-5F is available in FIGS. 19A-19C.
Their lethality was tested once in HT-1080 cells in technical triplicates.

Row | Structure (SMILES) | EC50 (HT-1080 cells [2]) [µg/mL] | further results
1 | O=S(=O)(NC1CCOCC1)c1ccc2c(c1)C(=NOCCOCCOCCO)c1cc(S(=O)(=O)NC3CCOCC3)ccc1-2 [SRS11-66, 9-(2-(2-(2-hydroxyethoxy)ethoxy)ethoxyimino)-N2,N7-bis(tetrahydro-2H-pyran-4-yl)-9H-fluorene-2,7-disulfonamide] |  | ferroptosis-inducing activity of FIN56 analogs (HT-1080 cells [1]): complete loss of activity
2 | CN1CCCN(C(=O)c2cccc(-c3ccc(/C=C4/C(=O)Nc5ccc(Cl)cc54)o3)c2)CC1 [CX-6258] |  | effect of ferroptosis inhibitors (α-tocopherol, deferoxamine) on lethality (HT-1080 cells [1]): the lethality was not suppressed by αToc
3 | C[C@H]1O[C@@H](O[C@H]2[C@@H](O)C[C@H](O[C@H]3[C@@H](O)C[C@H](O[C@H]4CC[C@@]5(C)[C@H](CC[C@@H]6[C@@H]5C[C@@H](O)[C@]5(C)[C@@H](C7=CC(=O)OC7)CC[C@]65O)C4)O[C@@H]3C)O[C@@H]2C)C[C@H](O)[C@@H]1O [digoxin, Digoxin] |  | effect on FIN56 lethality (HT-1080 cells [1]): enhanced FIN56 lethality
4 | O=C(O)CN(CC(=O)O)c1ccccc1OCCOc1ccccc1N(CC(=O)O)CC(=O)O [BAPTA] |  | effect on FIN56 lethality (HT-1080 cells [1]): suppressed it
5 | CC(C)=CCC/C(C)=C/CC/C(C)=C/COP(=O)(O)OP(=O)(O)O.N.N.N [FPP, farnesyl-PP] |  | effect on FIN56 lethality (HT-1080 cells [1]): suppressed the lethality of FIN56
6 | C[C@H](CCC(=O)O)C[C@H](C)C[C@H](C)C(=O)/C=C(\O)[C@H](C)C[C@H](C)C/C=C/[C@@H](C)[C@@H](O)[C@@H](C)[C@@H](O)C[C@@H]1CC[C@@](C)([C@H]2CC[C@@](C)([C@@H](C)O)O2)O1 [ionomycin] |  | effect on FIN56 lethality (HT-1080 cells [1]): enhanced FIN56 lethality
7 | N[C@@H]1CCCN(c2c(/C=C3\SC(=O)NC3=O)cccc2-c2ccccc2)C1 [AZD-1208] |  | effect of ferroptosis inhibitors (α-tocopherol, deferoxamine) on lethality (HT-1080 cells [1]): the lethality was not suppressed by αToc
8 | O=C(O)CN(CCOCCOCCN(CC(=O)O)CC(=O)O)CC(=O)O [EGTA, Ethyleneglycol-O,O′-bis(2-aminoethyl)-N,N,N′,N′-tetraacetic acid] |  | effect on FIN56 lethality (HT-1080 cells [1]): suppressed it
9 | O=[Se]([O-])[O-].[Na+].[Na+] [selenite, sodium selenite] |  | effect on FIN56 lethality (HT-1080 cells [1]): suppressed FIN56 lethality
10 | CNc1ccc2oc(C[C@H]3O[C@@]4(CC[C@H]3C)O[C@H]([C@H](C)C(=O)c3ccc[nH]3)[C@H](C)C[C@H]4C)nc2c1C(=O)O [A23187] |  | effect on FIN56 lethality (HT-1080 cells [1]): enhanced FIN56 lethality
11 | C=C(CC[C@]12O[C@H](C(=O)O)[C@@](O)(C(=O)O)[C@](C(=O)O)(O1)[C@H](OC(=O)/C=C/[C@@H](C)C[C@@H](C)CC)[C@H]2O)[C@@H](OC(C)=O)[C@H](C)Cc1ccccc1 [zaragozic acid A] |  | effect on FIN56 lethality (HT-1080 cells [1]): suppressed FIN56 lethality
12 | CCC(Oc1ccccc1)C(=O)O/N=C(\N)Cc1ccc([N+](=O)[O-])cc1 (stereo not drawn) [CB136] | > 20 | 
13 | N/C(Cc1ccc(Cl)cc1)=N\OC(=O)Cc1ccc([N+](=O)[O-])cc1 [CB17] | > 20 | 
14 | Cc1cccc(OCC(=O)O/N=C(\N)Cc2ccc(Cl)c(Cl)c2)c1C [CB112] | > 20 | 
15 | COc1ccccc1C/C(N)=N/OC(=O)c1ccc2c(c1)OCO2 [A05] | 5.04 (≈ 15.4 µM) | 
16 | N/C(Cc1ccc(Cl)cc1Cl)=N\OC(=O)CCCOc1ccccc1 [CB138] | > 20 | 
17 | N/C(Cc1cccs1)=N\OC(=O)COc1ccc(Cl)cc1Cl [CB75] | > 20 | 
18 | N/C(Cc1ccc([N+](=O)[O-])cc1)=N\OC(=O)CCc1ccccc1 [VM5] | > 20 | 
19 | N/C(Cn1c(C(F)(F)F)nc2ccccc21)=N\OC(=O)CC1CC2CCC1C2 (stereo not drawn) [ZE11] | > 20 | 
20 | Cc1cccc(OCC(=O)O/N=C(\N)Cc2ccc(Cl)cc2Cl)c1C [CB120] | > 20 | 
21 | N/C(Cc1cccs1)=N\OC(=O)COc1ccc(Br)cc1Cl [CB78] | > 20 | 
22 | N/C(Cc1ccc([N+](=O)[O-])cc1)=N\OC(=O)COc1ccc(Br)cc1Cl [CB76] | > 20 | 

Row | Structure (SMILES) | EC50 (HT-1080 cells [2]) [µg/mL] | further results
23 | COc1ccccc1C/C(N)=N/OC(=O)COc1ccc(C)cc1 [CB29] | > 20 | 
24 | N/C(Cc1cccc2ccccc12)=N\OC(=O)COc1ccccc1 [CB27] | > 20 | 
25 | N/C(Cc1cccs1)=N\OC(=O)COc1ccccc1Cl [CB68] | > 20 | 
26 | CC(=O)O/N=C(N)\C(=N/Nc1ccccc1)[N+](=O)[O-] [CB145] | > 20 | 
27 | COc1ccc(C/C(N)=N/OC(C)=O)cc1OC [CB66] | > 20 | 
28 | N/C(Cc1ccc(Cl)cc1)=N\OC(=O)C1CCCCC1 [CB58] | 17.6 (≈ 59.7 µM) | 
29 | N/C(Cc1cccc2ccccc12)=N\OC(=O)CSc1ccccc1 [CB131] | > 20 | 
30 | O=S(=O)(NC1CCOCC1)c1ccc2c(c1)C(=NO)c1cc(S(=O)(=O)NC3CCOCC3)ccc1-2 [SRS8-18, 9-(hydroxyimino)-N2,N7-bis(tetrahydro-2H-pyran-4-yl)-9H-fluorene-2,7-disulfonamide] |  | ferroptosis-inducing activity of FIN56 analogs (HT-1080 cells [1]): complete loss of activity
31 | COc1ccc(C/C(N)=N/OC(=O)COc2cccc3ccccc23)cc1 [CB10] | > 20 | 
32 | CCC(=O)O/N=C(/N)Cn1nc(C(F)(F)F)cc1C [ZE6] | > 20 | 
33 | N/C(Cc1cccc2ccccc12)=N\OC(=O)CCC1CCCCC1 [CB105] | > 20 | 
34 | Cc1nn(C/C(N)=N/OC(=O)C23CC4CC(CC(C4)C2)C3)c(C)c1[N+](=O)[O-] [CB147] | 4.88 (≈ 13 µM) | 
35 | N/C(Cc1ccc([N+](=O)[O-])cc1)=N\OC(=O)CC1CCCCC1 [CB83] | > 20 | 
36 | Cc1cccc(OCC(=O)O/N=C(/N)Cn2nc(C)c([N+](=O)[O-])c2C)c1 [ZE13] | > 20 | 
37 | N/C(Cc1ccc([N+](=O)[O-])cc1)=N\OC(=O)CSc1ccccc1 [CB141] | > 20 | 
38 | N/C(Cc1ccc([N+](=O)[O-])cc1)=N\OC(=O)CCCOc1ccccc1 [CB135] | > 20 | 
39 | Cc1cccc(OCC(=O)O/N=C(\N)Cc2ccc(Cl)cc2Cl)c1 [CB35] | > 20 | 
40 | COc1ccccc1C/C(N)=N/OC(=O)/C=C/c1ccccc1 [CB62] | 8.63 (≈ 27.8 µM) | 
41 | COc1ccc(CC(=O)O/N=C(/N)Cn2nc(C)c(Br)c2C)cc1 [ZE7] | > 20 | 
42 | N/C(Cc1cccc2ccccc12)=N\OC(=O)CCc1ccccc1 [VM4] | > 20 | 
43 | N/C(Cc1ccc([N+](=O)[O-])cc1)=N\OC(=O)C(c1ccccc1)c1ccccc1 [CB56] | 4.05 (≈ 10.4 µM) | 
44 | CC(C)(Oc1ccc(Cl)cc1)C(=O)O/N=C(\N)Cc1ccc(Cl)cc1Cl [CB119] | > 20 | 

Row | Structure (SMILES) | EC50 (HT-1080 cells [2]) [µg/mL] | further results
45 | N/C(Cc1cccc2ccccc12)=N\OC(=O)COc1ccccc1Cl [CB73] | > 20 | 
46 | N/C(Cc1ccc([N+](=O)[O-])cc1)=N\OC(=O)CCCc1ccccc1 [CB77] | > 20 | 
47 | COc1ccc(CC(=O)C/N=C(\N)Cc2cccc3ccccc23)cc1 [CB86] | > 20 | 
48 | COc1ccc(CC(=O)O/N=C(\N)Cc2ccc(OC)cc2)cc1 [CB84] | > 20 | 
49 | COc1ccc(/C=C(\C#N)C(=O)O/N=C2\CCCCCN2)cc1 [EN1] | > 20 | 
50 | Cc1cc(C(F)(F)F)nn1C/C(N)=N/OC(=O)C1CCCCC1 [ZE15] | > 20 | 
51 | Cc1cc(OCC(=O)O/N=C(\N)Cc2ccc([N+](=O)[O-])cc2)ccc1Cl [CB71] | > 20 | 
52 | N/C(Cc1ccc([N+](=O)[O-])cc1)=N\OC(=O)COc1cccc2ccccc12 [CB6] | > 20 | 
53 | Cc1cc(OCC(=O)O/N=C(\N)Cc2ccc([N+](=O)[O-])cc2)cc(C)c1Cl [CB50] | > 20 | 
54 | Cc1cccc(NC(=O)C/C(N)=N/OC(=O)C2CCCN2C(=O)c2ccco2)c1C (stereo not drawn) [EN10] | > 20 | 
55 | Cc1cccc(OCC(=O)O/N=C(\N)Cc2ccc(Cl)cc2)c1 [CB34] | > 20 | 
56 | N/C(Cc1ccc(Cl)cc1)=N\OC(=O)C(c1ccccc1)c1ccccc1 [VM1] | 2 (≈ 5.28 µM) | 
57 | N/C(Cc1ccc([N+](=O)[O-])cc1)=N\OC(=O)Cc1ccc(Cl)cc1 [CB9] | > 20 | 
58 | CC(Oc1ccc(Cl)cc1Cl)C(=O)O/N=C(\N)Cc1ccc([N+](=O)[O-])cc1 (stereo not drawn) [CB82] | > 20 | 
59 | COc1ccccc1C/C(N)=N/OC(=O)COc1cc(C)c(Cl)c(C)c1 [CB49] | 7.23 (≈ 19.2 µM) | 
60 | CC(C)(Oc1ccc(Cl)cc1)C(=O)O/N=C(\N)Cc1ccc(Cl)c(Cl)c1 [CB116] | 5.49 (≈ 13.2 µM) | 
61 | N/C(Cc1ccc(Cl)cc1Cl)=N\OC(=O)/C=C/c1ccccc1 [AS2] | 12.3 (≈ 35.1 µM) | 
62 | CC(=NOCC(=O)ON=C(N)COc1ccc(Cl)cc1Cl)c1ccc(Cl)cc1 [MB4] |  | EC50 of CIL41/70 and structural analogs (lethality) (HT-1080 cells [2]): MB4 (>20 ug/mL)
63 | Cc1cc(OCC(=O)O/N=C(\N)Cc2cccc3ccccc23)cc(C)c1Br [CB102] | > 20 | 
64 | Cc1cccc(OCC(=O)O/N=C(\N)Cc2cccs2)c1 [CB40] | > 20 | 
65 | N[C@H](Cc1ccc(Cl)cc1)NOC(=O)/C=C/c1ccccc1 [CB18] | 10.2 (≈ 32.2 µM) | 
66 | CCC(Oc1ccccc1)C(=O)O/N=C(\N)Cc1ccc(Cl)cc1Cl (stereo not drawn) [CB140] | 8.56 (≈ 22.5 µM) | 
